Test results published in patent publication US20050004211A1, “Pharmaceutical compositions comprising aryl-substituted acyclic enediyne compounds” (KAOHSIUNG MEDICAL UNIVERSITY, priority 2003, published 2005).
Values after ≈ are worked out from the molar mass of the structure shown.

What was measured:
CNS cancer cell SF-268 = experiment: Preliminary cytotoxicity test; assay type: cell-based, human
Breast cancer cell MCF-7 = experiment: Preliminary cytotoxicity test; assay type: cell-based, human
[1] = system: Non-small cell Lung cancer cell NCI-H460; experiment: Preliminary cytotoxicity test; assay type: cell-based, human
[2] = system: Hela: human cervix epitheloid carcinoma; experiment: In vitro anticancer assay (cytotoxicity), human solid tumor cells; settings: for IC50: Homo sapiens, HeLa, read-out: IC50 Values of Cytotoxicities, Hela
[3] = system: DLD (DLD-1): human colon adenocarcinoma; experiment: as above; settings: for IC50: Homo sapiens, DLD-1, read-out: IC50 Values of Cytotoxicities, DLD
Hepa: human hepatoma = experiment: as above; settings: for IC50: Homo sapiens, HepA, read-out: IC50 Values of Cytotoxicities, Hepa
topoisomerase I = biological target: T1, topoisomerase I (Homo sapiens, UniProt P11387); experiment: Topoisomerase I course assay, cleavage of supercoiled pGEM9zf(−) DNA, gel electrophoresis; assay type: biochemical; settings: for topo I inhibitor, overall finding: no concentration stated
T1 sequence (P11387 1-765): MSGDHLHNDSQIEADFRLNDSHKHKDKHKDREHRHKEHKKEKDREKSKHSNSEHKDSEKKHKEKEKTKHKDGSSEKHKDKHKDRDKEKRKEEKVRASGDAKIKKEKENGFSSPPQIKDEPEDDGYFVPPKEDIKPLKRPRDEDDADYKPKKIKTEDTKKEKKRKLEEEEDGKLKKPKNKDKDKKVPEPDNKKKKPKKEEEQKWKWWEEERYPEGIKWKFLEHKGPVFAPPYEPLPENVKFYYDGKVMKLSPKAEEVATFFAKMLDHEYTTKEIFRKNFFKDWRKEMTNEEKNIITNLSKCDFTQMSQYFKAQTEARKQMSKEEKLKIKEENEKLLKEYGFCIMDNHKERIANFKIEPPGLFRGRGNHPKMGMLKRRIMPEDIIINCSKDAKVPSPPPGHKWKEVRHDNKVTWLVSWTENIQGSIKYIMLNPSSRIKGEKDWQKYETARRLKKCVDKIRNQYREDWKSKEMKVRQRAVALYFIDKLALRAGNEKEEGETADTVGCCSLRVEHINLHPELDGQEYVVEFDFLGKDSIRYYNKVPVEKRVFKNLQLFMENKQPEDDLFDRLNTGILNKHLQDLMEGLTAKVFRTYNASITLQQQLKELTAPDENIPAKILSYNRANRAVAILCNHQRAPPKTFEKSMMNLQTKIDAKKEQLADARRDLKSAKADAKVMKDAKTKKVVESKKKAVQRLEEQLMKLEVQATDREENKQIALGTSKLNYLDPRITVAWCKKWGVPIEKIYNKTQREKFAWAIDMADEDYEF

[4] = system: NCI (NCI-H661): human lung large cell carcinoma; experiment: In vitro anticancer assay (cytotoxicity), human solid tumor cells; settings: for IC50: Homo sapiens, NCI-H661, read-out: IC50 Values of Cytotoxicities, NCI; for IC50 Values of Cytotoxicities, NCI: NCI (NCI-H661)
[5] = system: KB: human oral epidermoid carcinoma; experiment: as above; settings: for IC50: Homo sapiens, read-out: IC50 Values of Cytotoxicities, KB

Molecule	IC50 [2] [µg/mL]	IC50 [3] [µg/mL]	IC50 (Hepa: human hepatoma) [µg/mL]	IC50 [4] [µg/mL]	IC50 [5] [µg/mL]	IC50 Values of Cytotoxicities, Hela [2]	IC50 Values of Cytotoxicities, DLD [3]	IC50 Values of Cytotoxicities, Hepa (Hepa: human hepatoma)	IC50 Values of Cytotoxicities, NCI [4]	IC50 Values of Cytotoxicities, KB [5]	also measured
2-(6-(2-thioanisyl)-3-hexen-1,5-diynyl)benzonitrile [Compound 31]											Growth percentage, CNS cancer cell SF-268 (CNS cancer cell SF-268): 164%; Growth percentage, Breast cancer cell MCF-7 (Breast cancer cell MCF-7): 62%; Growth percentage, Non-small cell Lung cancer cell NCI-H460 [1]: 100%
2-(6-(2-xylenyl)-3-hexen-1,5-diyne)benzonitrile [Compound 24]											Growth percentage, CNS cancer cell SF-268 (CNS cancer cell SF-268): 111%; Growth percentage, Breast cancer cell MCF-7 (Breast cancer cell MCF-7): 101%; Growth percentage, Non-small cell Lung cancer cell NCI-H460 [1]: 129%
CCCCC#C/C=C\C#Cc1ccccc1 [Compound 6, (3Z)-Decen-1,5-diynylbenzene]	> 20	> 20	> 20	7.35 (≈ 35.3 µM)	14.4 (≈ 69.3 µM)						topo I inhibitor, overall finding (topoisomerase I): not Topo I inhibitors
N#Cc1ccccc1C#Cc1ccccc1C#CCOC1CCCCO1 (stereo not drawn) [Compound 7, 2-(2-(3-Tetrahydro-pyranyl-5-oxy-1-propynylphenyl)ethynyl)benzonitrile]						— (“—” means IC50 >20 μg/ml)	— (“—” means IC50 >20 μg/ml)	— (“—” means IC50 >20 μg/ml)	— (“—” means IC50 >20 μg/ml)	— (“—” means IC50 >20 μg/ml)	
N#Cc1ccccc1C#Cc1ccccc1C#CCCCOC1CCCCO1 (stereo not drawn) [Compound 8]						— (“—” means IC50 >20 μg/ml)	11.65 µg/mL	— (“—” means IC50 >20 μg/ml)	— (“—” means IC50 >20 μg/ml)	— (“—” means IC50 >20 μg/ml)	
CCCCC#Cc1ccccc1C#Cc1ccccc1C#N [Compound 9, 2-(2-(2-Hexynylphenyl)ethynyl)benzonitrile]						— (“—” means IC50 >20 μg/ml)	8.98 µg/mL	— (“—” means IC50 >20 μg/ml)	— (“—” means IC50 >20 μg/ml)	— (“—” means IC50 >20 μg/ml)	inhibition of topo I (topoisomerase I; 0.87 μM compound): no supercoiled DNA observed; inhibition of topo I (topoisomerase I; 8.7 μM compound): no supercoiled DNA observed; inhibition of topo I (topoisomerase I; 87 μM compound): showed restraint of topo I
CCCCCC#Cc1ccccc1C#Cc1ccccc1C#N [Compound 10, 2-(2-(2-Heptynylphenyl)ethynyl)benzonitrile]						— (“—” means IC50 >20 μg/ml)	16.25 µg/mL	5.13 µg/mL	9.22 µg/mL	— (“—” means IC50 >20 μg/ml)	inhibition of topo I (topoisomerase I; 0.87 μM compound): no inhibition of topo I; inhibition of topo I (topoisomerase I; 8.7 μM compound): displayed inhibitory activity against topo I; inhibition of topo I (topoisomerase I; 87 μM compound): displayed inhibitory activity against topo I
CCCCCCC#C/C=C\C#Cc1ccc(C#C/C=C\C#CCCCCCC)cc1 [Compound 11, 1,4-Bis-(3-(Z)-Dodecen-1,5-diynyl)benzene]	> 20	> 20	> 20	> 20	> 20						inhibition of topo I (topoisomerase I; 8.7 μM compound): No supercoiled DNA was observed; inhibition of topo I (topoisomerase I; 87 μM compound): No supercoiled DNA was observed; topo I inhibitor, overall finding (topoisomerase I): not topo I inhibitors
CCCCCCC#C/C=C\C#Cc1ccc(-c2ccc(C#C/C=C\C#CCCCCCC)cc2)cc1 [Compound 12, 4,4′-Bis-(3-(Z)-Dodecen-1,5-diynyl)biphenyl]	> 20	> 20	> 20	> 20	5.57 (≈ 11.8 µM)						inhibition of topo I (topoisomerase I; 8.7 μM compound): No supercoiled DNA was observed; inhibition of topo I (topoisomerase I; 87 μM compound): No supercoiled DNA was observed; topo I inhibitor, overall finding (topoisomerase I): not topo I inhibitors
CCCCCCC#C/C=C\C#Cc1ccc(C#N)cc1 [Compound 14, 4-(3-(Z)-Dodecen-1,5-diynyl)benzonitrile]	> 20	11.9 (≈ 45.6 µM)	> 20	> 20	> 20						
CCCCCCC#C/C=C\C#Cc1ccccn1 [Compound 15, 2-(3-(Z)-Dodecen-1,5-diynyl)pyridine]	> 20	5.15 (≈ 21.7 µM)	> 20	> 20	> 20						
CCCCCCC#C/C=C\C#Cc1cccs1 [Compound 16, 2-(3-(Z)-Dodecen-1,5-diynyl)thiophene]	> 20	6.75 (≈ 27.8 µM)	> 20	> 20	> 20						
CCCCCCC#C/C=C\C#Cc1cnccn1 [Compound 17, 2-(3-(Z)-Dodecen-1,5-diynyl)pyrazine]	5.3 (≈ 22.2 µM)	3.89 (≈ 16.3 µM)	12.3 (≈ 51.8 µM)	9.43 (≈ 39.6 µM)	5.93 (≈ 24.9 µM)						
CCCCCCC#C/C=C\C#Cc1ccc(C(F)(F)F)cc1 [Compound 18, 4-(3-(Z)-Dodecen-1,5-diynyl)trifluoromethylbenzene]						5.86 µg/mL	5.71 µg/mL	17.08 µg/mL	11.15 µg/mL	4.32 µg/mL	inhibition of topo I (topoisomerase I; 87 μM compound): displayed inhibitory activities of topo I
CCCCCCC#C/C=C\C#Cc1cccc(C(F)(F)F)c1 [Compound 19, 3-(3-(Z)-Dodecen-1,5-diynyl)trifluoromethylbenzene]						— (“—” means IC50 >20 μg/ml)	7.05 µg/mL	14.39 µg/mL	7.73 µg/mL	6.74 µg/mL	
CCCCCCC#C/C=C\C#Cc1ccccc1C(F)(F)F [Compound 20, 2-(3-(Z)-Dodecen-1,5-diynyl)trifluoromethylbenzene]						2.15 µg/mL	8.91 µg/mL	12.24 µg/mL	5.02 µg/mL	19.65 µg/mL	
CCCCCCC#C/C=C\C#Cc1ccc([N+](=O)[O-])cc1 [Compound 21, 4-nitro-1-(3-(Z)-dodecen-1,5-diynyl)benzene]	> 20	1.66 (≈ 5.9 µM)	> 20	> 20	13 (≈ 46.2 µM)						
CCCCCCC#C/C=C\C#Cc1ccccc1C(=O)O [Compound 22, 2-(3-(Z)-Dodecen-1,5-diynyl)benzoate]						— (“—” means IC50 >20 μg/ml)	7.27 µg/mL	— (“—” means IC50 >20 μg/ml)	— (“—” means IC50 >20 μg/ml)	— (“—” means IC50 >20 μg/ml)	
Cc1ccc(C#CC=CC#Cc2ccccc2C#N)cc1 [Compound 28, 2-(6-(4-tolyl)-3-hexen-1,5-diynyl)benzonitrile]											Growth percentage, CNS cancer cell SF-268 (CNS cancer cell SF-268): 105%; Growth percentage, Breast cancer cell MCF-7 (Breast cancer cell MCF-7): 80%; Growth percentage, Non-small cell Lung cancer cell NCI-H460 [1]: 96%
N#Cc1ccccc1C#CC=CC#Cc1cccs1 [Compound 29, 2-(6-(2-thienyl)-3-hexen-1,5-diynyl)benzonitrile]											Growth percentage, CNS cancer cell SF-268 (CNS cancer cell SF-268): 96%; Growth percentage, Breast cancer cell MCF-7 (Breast cancer cell MCF-7): 49%; Growth percentage, Non-small cell Lung cancer cell NCI-H460 [1]: 34%
N#Cc1ccccc1C#CC=CC#Cc1ccc(N)cc1 [Compound 33, 2-[6-(p-anilinyl)-3-hexen-1,5-diynyl]benzonitrile]											Growth percentage, CNS cancer cell SF-268 (CNS cancer cell SF-268): 92%; Growth percentage, Breast cancer cell MCF-7 (Breast cancer cell MCF-7): 100%; Growth percentage, Non-small cell Lung cancer cell NCI-H460 [1]: 94%
CC[C@@]1(O)C(=O)OCc2c1cc1n(c2=O)Cc2cc3ccccc3nc2-1 [camptothecin, reference compound]											inhibition of topo I (topoisomerase I; 26.1 μM): less topo I inhibitory activity; inhibition of topo I (topoisomerase I; 43.5 μM): observable inhibition of topo I
